Laboratory results published in US20240374646A1, “COMPOSITION FOR INHIBITING INFLAMMATION OR AGING OF STEM CELLS, AND METHOD FOR INHIBITING INFLAMMATION OR AGING BY USING SAME” (MITOIMMUNE THERAPEUTICS INC., priority 2021, published 2024).

Tested on: p16
Experiment: Real-time qPCR, p16 cell cycle-related gene expression
Type: cell-based, human
Details: TNF-α/IFN-γ-exposed MSCs treated with compound; FIG. 1C
Procedure: Human placenta-derived mesenchymal stem cells (hPD-MSCs) were harvested from inside the placental chorion, and the harvested cells were cultured in an alpha-Minimum Essential medium (Cytiva, Marlborough, MA, USA) supplemented with 10% fetal bovine serum (ThermoFisher, Waltham, MA, USA), 1% penicillin/streptomycin (ThermoFisher, Waltham, MA, USA), 25 ng/mL human fibroblast growth factor-4 (Peprotech, Rocky Hill, NJ, USA) and 1 μg/mL heparin (Merck, San Francisco, CA, USA). A total of 1×10^5 hPD-MSCs were seeded in a cell culture dish (90×20 mm) (SPL, Pocheon, Korea) and cultured at 37° C. in an incubator containing 5% CO2. The cells were subcultured every 4 days until reaching 70 to 80% confluency. Expanded cells were obtained at passage 12 or 13. During subculture, viable cells were stained with Trypan blue (Merck) and the number of cells was manually counted.
In a passage for sample extraction, hPD-MSCs were cultured for 24 hours in a medium with or without an example compound (5-[(1,1-dioxido-4-thiomorpholinyl)methyl]-2-phenyl-N-(tetrahydro-2H-pyran-4-yl)-1H-indole-7-amine) while including 2.5 ng/mL TNF-α (Peprotech) and 25 ng/mL IFN-γ (Peprotech).
In the present experiment, the expression levels of stem cell differentiation-related genes and cell cycle-related genes were analyzed by qPCR. […]

## O=S1(=O)CCN(Cc2cc(NC3CCOCC3)c3[nH]c(-c4ccccc4)cc3c2)CC1 [example compound, 5-[(1,1-dioxido-4-thiomorpholinyl)methyl]-2-phenyl-N-(tetrahydro-2H-pyran-4-yl)-1H-indole-7-amine]
  p16 expression (relative to untreated MSC control): remarkably decreased
